The values below come from US8637681B2, “Pyrrolyl substituted dihydroindol-2-one derivatives, preparation methods and uses thereof” (Qilu Pharmaceutical Co., Ltd., priority 2010, dated 2014).

Structures are written as SMILES. Some results are limits rather than exact numbers.

The test system of data set [1] is arterial ring angiogenesis in rats. Kind of data set: Inhibitory actions on arterial ring angiogenesis in rats. In kind it is cell-based. To be noted: Rattus norvegicus, area covered by micrangiums vs control well, read-out: Inhibitory rate (%); for inhibition at 0.2 µg/mL: 0.2 μg/ml; for inhibition at 1 µg/mL: 1 μg/ml; for inhibition at 5 µg/mL: 5 μg/ml. The protocol: This experiment was conducted by referring to the method described by R. F. Nicosia et al (Nicosia, R. F., et al. Am J Pathol., 1997, 151, 1379-1386). Rats were executed by cervical dislocation. The thoracic aorta was carefully separated, and placed in a container with physiological saline. The excess tissues were carefully cut off. The blood vessels were cut with a pair of ophthalmic scissors to form 1 mm thick vascular ring slices. To a pre-cooled 96-well cell culture plate, one separated vascular ring was placed in the center of each well. 70 μl of pre-molten Matrigel was carefully added to cover the vascular ring, which was incubated at 37° C. for 1 h so as to solidify it. […] The sample was placed in incubator for conventional culture, and each compound was tested at least in two repeated wells, and each test was repeated twice. […] The fresh culture medium was replaced every 3 days, and the drug was changed at the same time. The survival status of vascular rings was observed under microscope, and pictures were taken at the same time. Image Pro Plus software was used to calculate the area covered by micrangiums. The average inhibition rate was calculated by using the formula: inhibition rate (%)=(area of control well−area of drug well)/area of control well×100%.

Data set [2] is described as follows: Cytotoxicity test (SRB), A549. Type of data set: cell-based. To be noted: human, A549 non-small cell lung cancer cells. On the procedure: (§1) Cytotoxicity of the compounds of the present invention was tested with human non-small cell lung cancer cells A549, human cervical cancer Hela cells, human skin cancer cells A431. The test was performed by referring to the method described by Rusnak et al (Rusnak D. W., et al., Cell Prolif., 2007, 40, 580-94).
(§2) In Dulbecco's Modified Eagle Medium (DMEM) comprising 10% fetal bovine serum, 2 mM glutamine and non-essential amino acids, cells were cultured at 37° C. in 5% CO2 cell incubator. Trypsin/ethylenediamine tetraacetic acid (EDTA) were used to harvest cells in cell culture bottle. The cells were added to a 96-well cell culture plate, 4000/well (0.1 ml medium), adhering wall overnight, 0.1 ml of the diluted solution of the compounds to be tested was added, the final concentration of DMSO was 0.25%. The cell culture plate was incubated at 37° C., 5% CO2 conditions for 72 h. The change of cellular morphology was observed under microscope, and then 50 μl of 50% (mass/volume) trichloroacetic acid (TCA) was added to each well to fix cells. The final concentration of TCA was 10%. It stood for 5 min, than was placed in 4° C. refrigerator for 1 h, the wells of the culture plate were washed with deionized water for 5 times to remove TCA, drained, dried in air until no wet trace was observed. 100 μl of 0.4% (mass/volume) SRB was added to each well, stood at room temperature for 10 min. The liquid in each well was discarded, and then the wells were washed with 1% acetic acid for 5 times, dried in air, extracted with 150 μl of 10 mM Tris base (trihydroxymethylaminomethane, pH 10.5). The absorption at a wavelength of 540 nm was measured. The IC50 (μM) of the compound was calculated using Logit method.

Data set [3] in a line: Cytotoxicity test (SRB), Hela. In kind it is cell-based. To be noted: human, Hela cervical cancer cells. The protocol: Cytotoxicity of the compounds of the present invention was tested with human non-small cell lung cancer cells A549, human cervical cancer Hela cells, human skin cancer cells A431. The test was performed by referring to the method described by Rusnak et al (Rusnak D. W., et al., Cell Prolif., 2007, 40, 580-94). […] Trypsin/ethylenediamine tetraacetic acid (EDTA) were used to harvest cells in cell culture bottle. The cells were added to a 96-well cell culture plate, 4000/well (0.1 ml medium), adhering wall overnight, 0.1 ml of the diluted solution of the compounds to be tested was added, the final concentration of DMSO was 0.25%. The cell culture plate was incubated at 37° C., 5% CO2 conditions for 72 h. […] The absorption at a wavelength of 540 nm was measured. The IC50 (μM) of the compound was calculated using Logit method.

A short description of data set [4]: Cytotoxicity test (SRB), A431. In kind it is cell-based. To be noted: human, A431 skin cancer cells. The protocol:
as §1, §2

The subject of data set [5] is human colon cancer HT 29 transplanted tumor. Kind of data set: Nude mice transplanted tumor test. Type of data set: in vivo, female Balb/cA nude mice. Also on record: key to d21 Vave ± SD (average tumor volume): tumor volume TV = ½×a×b² (a, b = major, minor diameter), in mm³. To be noted: for Dead animal number / inhibition in vivo at 80 mg/kg / d21 Wave ± SD (average bodyweight of nude mice) / d21 Vave ± SD (average tumor volume) / d21 RTV ± SD (relative tumor volume): 80 mg/kg intragastrically each day for 20 days; for Dead animal number: dead/total animals; for inhibition in vivo at 80 mg/kg: Mus musculus, HT-29, po, 504 h, (1−T/C)×100%, read-out: Tumor inhibition rate d21 (%); for inhibition in vivo at 80 mg/kg / d21 Wave ± SD (average bodyweight of nude mice) / d21 Vave ± SD (average tumor volume) / d21 RTV ± SD (relative tumor volume): d21; for d0 Wave ± SD (average bodyweight of nude mice): d0, at grouping before administration (baseline); for d21 Vave ± SD (average tumor volume): HT 29 in nude mice; for d21 RTV ± SD (relative tumor volume): RTV=Vt/V0; for Activity of inhibiting HT-29 transplanted tumor in vivo (in words): 80 mg/kg, compared with positive control Sunitinib. On the procedure:
The nude mice transplanted tumor test used female Balb/cA nude mice, and tumor strains were human colon cancer HT 29 strains.
Under sterile condition, eugonic tumor tissues stage were cut into pieces of about 1.5 mm^3, and inoculated at right axillary fossa of the nude mice. The transplanted tumor diameter was measured by vernier caliper, and the animals were randomly grouped after the tumors grew to about 120 mm^3. The positive control group and the compounds group in a dosage of 80 mg/kg were administered intragastrically each day for consecutive 20 days. The negative control group was given equivalent amount of injection water containing 0.1% Tween 80. Tumor diameters and the bodyweight of mice were measured 2-3 times every week. The evaluation indexes observed in the test include relative tumor proliferation rate, bodyweight and general states. The formulation for calculating tumor volume (TV) is: TV=½×a×b^2, wherein a, b represent major diameter and minor diameter of tumor; Relative tumor volume (RTV) was calculated according the results of measurement by the following formula: RTV=Vt/V0, wherein V0 is tumor volume measured when dividing groups for administration, and Vt is tumor volume measured after each administration.

Take `Cc1[nH]c(/C=C2\C(=O)Nc3ccc(F)cc32)c(C)c1NC(=O)CN(C)C` [Compound 22, N-{5-[5-fluoro-2-oxo-1,2-dihydro-indol-(3Z)-ylidenemethyl]-2,4-dimethyl-1H-pyrrol-3-yl}-2-(N,N-dimethylamino)acetamide]: in data set [1], the inhibition at 0.2 µg/mL was determined as 90%, the inhibition at 1 µg/mL is 100% and the inhibition at 5 µg/mL is 100%. Also, in data set [2], the IC50 – broadly, the concentration at which inhibition is half-maximal – at 72 h was more than 30 µM. This compound displayed an IC50 at 72 h in data set [3] of more than 30 µM. The same compound displayed an IC50 at 72 h in data set [4] of more than 30 µM. In addition, in data set [5], the Dead animal number is on record as 0/6, the inhibition in vivo at 80 mg/kg came out at 88.1%, the “d0 Wave ± SD (average bodyweight of nude mice)” value (shortened to “d0 Wave ± SD”) is reported as 19.7 ± 0.38 and the “d21 Wave ± SD (average bodyweight of nude mice)” value (“d21 Wave ± SD” for short) came to 20.1 ± 0.35. In data set [5], the “d21 RTV ± SD (relative tumor volume)” value is 0.86 ± 0.54. Further, the “d21 Vave ± SD (average tumor volume)” value in data set [5] (in mm³ (unit assumed)) is reported as 104.6 ± 43.6.

Regarding `CCN(CC)CC(=O)Nc1c(C)[nH]c(/C=C2\C(=O)Nc3ccc(NC(C)=O)cc32)c1C` [Compound 28, N-{5-[5-acetylamino-2-oxo-1,2-dihydro-indol-(3Z)-ylidenemethyl]-2,4-dimethyl-1H-pyrrol-3-yl}-2-(N,N-diethylamino)acetamide], in data set [1], the inhibition at 0.2 µg/mL is 90%, the inhibition at 1 µg/mL is 100% and the inhibition at 5 µg/mL worked out at 100%. Further, the IC50 at 72 h in data set [2] is more than 30 µM. For the same compound, in data set [3], the IC50 at 72 h is more than 30 µM. In addition, in data set [4], the IC50 at 72 h was more than 30 µM. Further, in data set [5], the Dead animal number is reported as 0/6, the inhibition in vivo at 80 mg/kg was found to be 77%, the “d0 Wave ± SD” value is listed as 18.8 ± 1.01 and the “d21 Wave ± SD” value is 19.5 ± 0.86. Besides, the “d21 RTV ± SD (relative tumor volume)” value in data set [5] was found to be 1.65 ± 0.62. Further, the “d21 Vave ± SD (average tumor volume)” value in data set [5] (in mm³ (unit assumed)) is 204.3 ± 52.7.

In the case of `Cc1[nH]c(/C=C2\C(=O)Nc3ccc(F)cc32)c(C)c1NC(=O)CN1CCCCC1` [Compound 16, N-{5-[5-fluoro-2-oxo-1,2-dihydro-indol-(3Z)-ylidenemethyl]-2,4-dimethyl-1H-pyrrol-3-yl}-2-(piperidin-1-yl)acetamide], in data set [1], the inhibition at 0.2 µg/mL came out at 91%, the inhibition at 1 µg/mL is 100% and the inhibition at 5 µg/mL is 100%. Further, the IC50 at 72 h in data set [2] was more than 30 µM. In data set [3], this compound came in with an IC50 at 72 h of more than 30 µM. In addition, 6.25 µM corresponded to half-maximal inhibition in data set [4] (IC50 at 72 h). Besides, in data set [5], the Dead animal number was 0/6, the inhibition in vivo at 80 mg/kg was 68.7%, the “d0 Wave ± SD” value is listed as 19.5 ± 0.46 and the “d21 Wave ± SD” value is recorded as 18.5 ± 0.59. For the same compound, the “d21 RTV ± SD (relative tumor volume)” value in data set [5] is listed as 2.25 ± 0.37. Besides, the “d21 Vave ± SD (average tumor volume)” value in data set [5] (in mm³ (unit assumed)) came out at 268.4 ± 33.8.

As to `CCN(CC)CCC(=O)Nc1c(C)[nH]c(/C=C2\C(=O)Nc3ccc(F)cc32)c1C` [Compound 1, N-{5-[5-fluoro-2-oxo-1,2-dihydro-indol-(3Z)-ylidenemethyl]-2,4-dimethyl-1H-pyrrol-3-yl}-3-(N,N-diethylamino)propionamide], in data set [1], the inhibition at 0.2 µg/mL turned out to be 99%, the inhibition at 1 µg/mL is 100% and the inhibition at 5 µg/mL came out at 100%. In data set [2], this compound yielded an IC50 at 72 h of more than 30 µM. In data set [3], this compound had an IC50 at 72 h of more than 30 µM. This compound also returned an IC50 at 72 h in data set [4] of more than 30 µM. In data set [5], the Dead animal number was 0/6, the “Activity of inhibiting HT-29 transplanted tumor in vivo (in words)” value is “inhibitory activity comparable to the positive control Sunitinib”, the inhibition in vivo at 80 mg/kg was determined as 86.9% and the “d0 Wave ± SD” value amounted to 18.6 ± 1.20. Besides, in data set [5], the “d21 Wave ± SD” value came to 18.8 ± 2.97 and the “d21 RTV ± SD (relative tumor volume)” value amounted to 0.94 ± 0.12. Also, the “d21 Vave ± SD (average tumor volume)” value in data set [5] (in mm³ (unit assumed)) is reported as 102.8 ± 26.2.

As for `Cc1[nH]c(/C=C2\C(=O)Nc3ccc(F)cc32)c(C)c1NC(=O)CN1CCCC1` [Compound 17, N-{5-[5-fluoro-2-oxo-1,2-dihydro-indol-(3Z)-ylidenemethyl]-2,4-dimethyl-1H-pyrrol-3-yl}-2-(tetrahydropyrrol-1-yl)acetamide], in data set [1], the inhibition at 0.2 µg/mL came to 89%, the inhibition at 1 µg/mL came to 100% and the inhibition at 5 µg/mL came to 100%. The compound also yielded an IC50 at 72 h in data set [2] of more than 30 µM. This compound also registered an IC50 at 72 h in data set [3] of more than 30 µM. In data set [4], the IC50 at 72 h was more than 30 µM. In data set [5], the Dead animal number is 0/6, the inhibition in vivo at 80 mg/kg was determined as 63.5%, the “d0 Wave ± SD” value came to 18.9 ± 0.58 and the “d21 Wave ± SD” value stood at 19.2 ± 0.82. Besides, in data set [5], the “d21 Vave ± SD (average tumor volume)” value is listed as 324.5 ± 39.4 and the “d21 RTV ± SD (relative tumor volume)” value came out at 2.63 ± 0.53.

For `Cc1[nH]c(/C=C2\C(=O)Nc3ccc(F)cc32)c(C)c1NC(=O)/C=C/CN(C)C` [Compound 4, N-{5-[5-fluoro-2-oxo-1,2-dihydro-indol-(3Z)-ylidenemethyl]-2,4-dimethyl-1H-pyrrol-3-yl}-4-(N,N-dimethylamino)-(2E)-crotonamide], in data set [1], the inhibition at 0.2 µg/mL worked out at 98%, the inhibition at 1 µg/mL was 100% and the inhibition at 5 µg/mL was 100%. Besides, the IC50 at 72 h in data set [2] was more than 30 µM. Also, in data set [3], the IC50 at 72 h is more than 30 µM. Besides, in data set [4], the IC50 at 72 h was more than 30 µM. Also, in data set [5], the Dead animal number was 0/6, the “Activity of inhibiting HT-29 transplanted tumor in vivo (in words)” value is “inhibitory activity comparable to the positive control Sunitinib”, the inhibition in vivo at 80 mg/kg was found to be 91% and the “d0 Wave ± SD” value came out at 19.6 ± 0.22. In addition, in data set [5], the “d21 Wave ± SD” value came out at 19.6 ± 0.85 and the “d21 RTV ± SD (relative tumor volume)” value turned out to be 0.65 ± 0.28. Further, the “d21 Vave ± SD (average tumor volume)” value in data set [5] (in mm³ (unit assumed)) is recorded as 80.0 ± 33.2.
